Results from patent US9145399B2, “Substituted bicyclic triazole derivatives as gamma secretase modulators” (Janssen Pharmaceuticals, Inc., priority 2010, dated 2015).

Columns and labels:
Aβ42 [1] = test: Screening for γ-secretase-modulating activity in SKNBE2 cells carrying APP 695 wild type: Aβ42 in cell supernatant (Alphalisa); format: cell-based; details: Homo sapiens, SKNBE2, SKNBE2 cells carrying APP 695 wild type, overnight incubation
In short: (§1)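 SKNBE2 cells expressing wild-type APP695 were incubated overnight at 37° C with test compound at several concentrations. Aβ42 and Aβtotal in supernatant were measured by AlphaLISA sandwich immunoassays. IC50 came from 4-parameter non-linear fits of percent of compound-free control versus log concentration.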

Aβtotal [2] = test: Screening for γ-secretase-modulating activity in SKNBE2 cells carrying APP 695 wild type: Aβtotal in cell supernatant (Alphalisa); format: cell-based; details: Homo sapiens, overnight incubation
In short: as §1

Aβ42 [3] = test: In vivo efficacy: Aβ42 lowering in brain of non-transgenic mice after single oral dose (ELISA); design: species or system mouse; details: Mus musculus; dose 30 mg/kg oral dosing; soluble brain fraction, animals sacrificed after 4 h; untreated animals (Ctrl) set at 100; read-out: Aβ42 (% vs Ctrl) _Mean
Description: (§2) To determine whether acute administration of an Aβ42 lowering agent would reduce Aβ42 levels in vivo, non-transgenic rodents, e.g. mice or rats were used. Animals treated with the Aβ42 lowering agent were examined and compared to those untreated or treated with vehicle and brain levels of soluble Aβ42 and total Aβ were quantitated by standard techniques, for example, using ELISA. Treatment periods varied from hours (h) to days and were adjusted based on the results of the Aβ42 lowering once a time course of onset of effect could be established.
(§3) A typical protocol for measuring Aβ42 lowering in vivo is shown but it is only one of many variations that could be used to optimize the levels of detectable Aβ. For example, Aβ42 lowering compounds were formulated in 20% of Captisol® (a sulfobutyl ether of β-cyclodextrin) in water or 20% hydroxypropyl β cyclodextrin. The Aβ42 lowering agents were administered as a single oral dose or by any acceptable route of administration to overnight fasted animals. After 4 h, the animals were sacrificed and Aβ42 levels were analysed.
(§4) Blood was collected by decapitation and exsanguinations in EDTA-treated collection tubes. Blood was centrifuged at 1900 g for 10 minutes (min) at 4° C. and the plasma recovered and flash frozen for later analysis. The brain was removed from the cranium and hindbrain. The cerebellum was removed and the left and right hemisphere were separated. The left hemisphere was stored at −18° C. for quantitative analysis of test compound levels. The right hemisphere was rinsed with phosphate-buffered saline (PBS) buffer and immediately frozen on dry ice and stored at −80° C. until homogenization for biochemical assays.
(§5) Mouse brains from non-transgenic animals were resuspended in 8 volumes of 0.4% DEA (diethylamine)/50 mM NaCl containing protease inhibitors (Roche-11873580001 or 04693159001) per gram of tissue, e.g. for 0.158 g brain, add 1.264 ml of 0.4% DEA. All samples were homogenized in the FastPrep-24 system (MP Biomedicals) using lysing matrix D (MPBio #6913-100) at 6 m/s for 20 seconds. Homogenates were centrifuged at 221.300×g for 50 min. The resulting high speed supernatants were then transferred to fresh eppendorf tubes. Nine parts of supernatant were neutralized with 1 part 0.5 M Tris-HCl pH 6.8 and used to quantify Aβtotal and Aβ42.
(§6) To quantify the amount of Aβtotal and Aβ42 in the soluble fraction of the brain homogenates, Enzyme-Linked-Immunosorbent-Assays were used. Briefly, the standards (a dilution of synthetic Aβ1-40 and Aβ1-42, Bachem) were prepared in 1.5 ml Eppendorf tube in Ultraculture, with final concentrations ranging from 10000 to 0.3 pg/ml. The samples and standards were co-incubated with HRPO-labelled N-terminal antibody for Aβ42 detection and with the biotinylated mid-domain antibody 4G8 for Aβtotal detection. 50 μl of conjugate/sample or conjugate/standards mixtures were then added to the antibody-coated plate (the capture antibodies selectively recognize the C-terminal end of Aβ42, antibody JRF/cAβ42/26, for Aβ42 detection and the N-terminus of Aβ, antibody JRF/rAβ/2, for Aβtotal detection). The plate was allowed to incubate overnight at 4° C. in order to allow formation of the antibody-amyloid complex. Following this incubation and subsequent wash steps the ELISA for Aβ42 quantification was finished by addition of Quanta Blu fluorogenic peroxidase substrate according to the manufacturer's instructions (Pierce Corp., Rockford, Il). A reading was performed after 10 to 15 min (excitation 320 nm/emission 420 nm).
In this model at least 20% Aβ42 lowering compared to untreated animals would be advantageous.
The results are shown in Table 4 (dose 30 mg/kg oral dosing) (value for untreated animals as control (Ctrl) was set at 100): […]

Aβtotal [4] = test: In vivo efficacy: Aβtotal in brain of non-transgenic mice after single oral dose (ELISA); design: species or system mouse; details: Mus musculus; dose 30 mg/kg oral dosing; soluble brain fraction, animals sacrificed after 4 h; untreated animals (Ctrl) set at 100; read-out: Aβtotal (% vs Ctrl)_Mean
Description: as §2, §3, §4, §5, §6
For Aβtotal detection, a Streptavidine-Peroxidase-Conjugate was added, followed 60 min later by an additional wash step and addition of Quanta Blu fluorogenic peroxidase substrate according to the manufacturer's instructions (Pierce Corp., Rockford, Ill). A reading was performed after 10 to 15 min (excitation 320 nm/emission 420 nm). […]

SMILES | IC50 (Aβ42 [1]) [µM] | IC50 (Aβtotal [2]) [µM] | melting point [°C] | response vs control in vivo at 30 mg/kg (Aβ42 [3]) [%] | response vs control in vivo at 30 mg/kg (Aβtotal [4]) [%]
COc1cc(Nc2nc3n(n2)CCN(C)C3c2ccccc2C(F)(F)F)ccc1-n1cnc(C)c1 (centres unmarked) [Compound 13, 5,6,7,8-tetrahydro-N-[3-methoxy-4-(4-methyl-1H-imidazol-1-yl)phenyl]-7-methyl-8-[2-(trifluoromethyl)phenyl]-[1,2,4]triazolo[1,5-a]pyrazin-2-amine] | 0.009 | 7.76 |  | 93 | 100
COc1cc(Nc2nc3n(n2)CCN(C(C)=O)C3c2ccccc2C(F)(F)F)ccc1-n1cnc(C)c1 (centres unmarked) [Compound 14, 7-acetyl-5,6,7,8-tetrahydro-N-[3-methoxy-4-(4-methyl-1H-imidazol-1-yl)phenyl]-8-[2-(trifluoromethyl)phenyl]-[1,2,4]triazolo[1,5-a]pyrazin-2-amine] | 0.066 | > 10 |  | 101 | 119
Cc1cc(-c2ccc(Nc3nc4n(n3)CCCC4c3ccccc3C(F)(F)F)cc2)ccn1 (centres unmarked) [Compound 42, 5,6,7,8-tetrahydro-N-[4-(2-methyl-4-pyridinyl)phenyl]-8-[2-(trifluoromethyl)phenyl]-[1,2,4]triazolo[1,5-a]pyridin-2-amine] | 0.023 | > 10 |  | 58 | 83
COc1cc(Nc2nc3n(n2)CCCC3c2ccccc2C(F)(F)F)ccc1-c1ccnc(C)c1 (centres unmarked) [Compound 43, 5,6,7,8-tetrahydro-N-[3-methoxy-4-(2-methyl-4-pyridinyl)phenyl]-8-[2-(trifluoromethyl)phenyl]-[1,2,4]triazolo[1,5-a]pyridin-2-amine] | 0.016 | 7.08 |  | 71 | 87
FC(F)(F)c1ccccc1C1CCCn2nc(Nc3ccc(-c4cccnc4)cc3)nc21 (centres unmarked) [Compound 46, 5,6,7,8-tetrahydro-N-[4-(3-pyridinyl)phenyl]-8-[2-(trifluoromethyl)phenyl]-[1,2,4]triazolo[1,5-a]pyridin-2-amine] | 5.25 | > 10 |  | 61 | 98
COc1cc(Nc2nc3n(n2)C(c2ccccc2C(F)(F)F)CCC3)ccc1-c1ccnc(C)c1 (centres unmarked) [Compound 52, 5,6,7,8-tetrahydro-N-[3-methoxy-4-(2-methyl-4-pyridinyl)phenyl]-5-[2-(trifluoromethyl)phenyl]-[1,2,4]triazolo[1,5-a]pyridin-2-amine 1.8 HCl3H2O] | 0.182 | ≥ 10 |  | 45 | 112
COc1cc(Nc2nc3n(n2)CCOC3c2ccccc2C(F)(F)F)ccc1-c1ccnc(C)c1 (centres unmarked) [Compound 65, 5,6-dihydro-N-[3-methoxy-4-(2-methyl-4-pyridinyl)phenyl]-8-[2-(trifluoromethyl)phenyl]-8H-[1,2,4]triazolo[5,1-c][1,4]oxazin-2-amine] | 0.052 | > 10 |  | 64 | 101
Cc1cc(-c2ccc(Nc3nc4n(n3)CCCC4c3cc(C(F)(F)F)ccc3F)cc2)ccn1 (centres unmarked) [Compound 114, 8-[2-fluoro-5-(trifluoromethyl)phenyl]-5,6,7,8-tetrahydro-N-[4-(2-methyl-4-pyridinyl)phenyl]-[1,2,4]triazolo[1,5-a]pyridin-2-amine] | 0.041 | > 10 | 194.4 |  | 
Cc1cc(-c2ccc(Nc3nc4n(n3)CCCC4c3c(F)cccc3Cl)cc2)ccn1 (centres unmarked) [Compound 116, 8-(2-chloro-6-fluorophenyl)-5,6,7,8-tetrahydro-N-[4-(2-methyl-4-pyridinyl)phenyl]-[1,2,4]triazolo[1,5-a]pyridin-2-amine] | 0.071 | > 10 | 234.4 |  | 
COc1cc(Nc2nc3n(n2)CCCC3c2cc(C(F)(F)F)ccc2C)ccc1-c1ccnc(C)c1 (centres unmarked) [Compound 151, 5,6,7,8-tetrahydro-N-[3-methoxy-4-(2-methyl-4-pyridinyl)phenyl]-8-[2-methyl-5-(trifluoromethyl)phenyl]-[1,2,4]triazolo[1,5-a]pyridin-2-amine] | 0.031 | 7.08 | 146.8 |  | 
COc1ccc(F)c(C2CCCn3nc(Nc4ccc(-c5ccnc(C)c5)c(F)c4)nc32)c1 (centres unmarked) [Compound 184, 8-(2-fluoro-5-methoxyphenyl)-N-[3-fluoro-4-(2-methyl-4-pyridinyl)phenyl]-5,6,7,8-tetrahydro-[1,2,4]triazolo[1,5-a]pyridin-2-amine] | 0.023 | > 10 | 221.5 |  | 

More lines, in order of falling IC50 (Aβ42 [1]), values ahead:

IC50 (Aβ42 [1]) [µM] | IC50 (Aβtotal [2]) [µM] | melting point [°C] | SMILES | response vs control in vivo at 30 mg/kg (Aβ42 [3]) [%] | response vs control in vivo at 30 mg/kg (Aβtotal [4]) [%]
0.05 | > 10 | 174 | COc1cc(Nc2nc3n(n2)CCCC3c2c(F)cccc2Cl)ccc1-c1ccnc(C)c1 (centres unmarked) [Compound 110, 8-(2-chloro-6-fluorophenyl)-5,6,7,8-tetrahydro-N-[3-methoxy-4-(2-methyl-4-pyridinyl)phenyl]-[1,2,4]triazolo[1,5-a]pyridin-2-amine] |  | 
0.044 | > 10 | 173.1 | COc1cc(Nc2nc3n(n2)CCCC3c2cc(C(F)(F)F)ccc2F)ccc1-c1ccnc(C)c1 (centres unmarked) [Compound 182, 8-[2-fluoro-5-(trifluoromethyl)phenyl]-5,6,7,8-tetrahydro-N-[3-methoxy-4-(2-methyl-4-pyridinyl)phenyl]-[1,2,4]triazolo[1,5-a]pyridin-2-amine] |  | 
0.041 | > 10 | 204.6 | COc1ccc(F)c(C2CCCn3nc(Nc4ccc(-c5ccnc(C)c5)cc4)nc32)c1 (centres unmarked) [Compound 183, 8-(2-fluoro-5-methoxyphenyl)-5,6,7,8-tetrahydro-N-[4-(2-methyl-4-pyridinyl)phenyl]-[1,2,4]triazolo[1,5-a]pyridin-2-amine] |  | 
0.035 | 9.12 |  | COc1cc(Nc2nc3n(n2)CCCC3c2ccccc2Cl)ccc1-c1ccnc(C)c1 (racemic) [Compound 66, 8-(2-chlorophenyl)-5,6,7,8-tetrahydro-N-[3-methoxy-4-(2-methyl-4-pyridinyl)phenyl]-[1,2,4]triazolo[1,5-a]pyridin-2-amine] | 54 | 92
0.032 | > 15 | 147.4 | COc1cc(C2CCCn3nc(Nc4ccc(-c5ccnc(C)c5)c(OC)c4)nc32)ccc1F (centres unmarked) [Compound 107, 8-(4-fluoro-3-methoxyphenyl)-5,6,7,8-tetrahydro-N-[3-methoxy-4-(2-methyl-4-pyridinyl)phenyl]-[1,2,4]triazolo[1,5-a]pyridin-2-amine] |  | 
